Laboratory results as given in patent US8685963B2, “Compounds that inhibit NFκB and BACE1 activity” (The Trustees of Columbia University in the city of New York, priority 2008, dated 2014).
“Also recorded” adds a separate entry of the source.

Columns and labels:
BACE1 = biological target: T1, BACE1 (Homo sapiens, UniProt P56817); assay: cell-based BACE1 assay (sAPPβ modified ELISA) in SY5Y-BACEGFP-SEAPAPPwt cells; details: for IC50: 8-point dose-response (30-0.01 μM)
T1 construct: GFP; expressed in transfected cells; host or cells: SY5Y cells (SY5Y-BACEGFP-SEAPAPPwt), stably transfected
T1 sequence (P56817 46-501): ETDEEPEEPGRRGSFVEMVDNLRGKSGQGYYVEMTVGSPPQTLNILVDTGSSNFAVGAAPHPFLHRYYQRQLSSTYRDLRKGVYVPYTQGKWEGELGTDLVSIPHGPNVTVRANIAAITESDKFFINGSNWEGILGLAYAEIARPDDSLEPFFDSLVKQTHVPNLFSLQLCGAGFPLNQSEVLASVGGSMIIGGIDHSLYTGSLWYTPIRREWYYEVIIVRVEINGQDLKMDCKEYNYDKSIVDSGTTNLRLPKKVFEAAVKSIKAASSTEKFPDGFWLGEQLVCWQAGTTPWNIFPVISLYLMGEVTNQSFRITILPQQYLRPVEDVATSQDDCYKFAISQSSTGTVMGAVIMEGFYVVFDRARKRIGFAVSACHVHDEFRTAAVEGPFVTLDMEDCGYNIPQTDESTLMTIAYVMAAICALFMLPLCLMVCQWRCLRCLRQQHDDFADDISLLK
Experimental: FIG. 8 depicts a sAPPβ assay utilized to identify inhibitors of BACE1. The assay utilizes SY5Y cells stably overexpressing BACE-GFP and SEAP-APPwt. Cells are incubated with a candidate compound for 6 hours prior to harvesting media. BACE1-mediated cleavage of APP results in the release of sAPPβ into the media. α-secretase, a competing enzyme that is non-amyloidogenic, also cleaves APP to release […]. Using an sAPPβ-specific antibody (sβwt), SEAP-sAPPβ is specifically captured in a modified ELISA assay. Detection is achieved by addition of the fluorescent alkaline phosphatase substrate, 4-methylumbelliferyl phosphate (4-MUP).
FIG. 10A-B depicts SAR studies of N-(quinolin-8-yl)benzenesulfonamides. 28 full and partial hits, shown in (A) for compounds 1-26 and (B) for compounds 27 and 28, from the targeted screen of N-(quinolin-8-yl)benzenesulfonamides were characterized in SY5Y-BACEGFP-SEAPAPPwt cells using the cell-based BACE1 assay. All compounds were tested at 8 concentrations (30, 10, 3, 1, 0.3, 0.1, 0.03, and 0.01 μM), and data points were analyzed with Origin software and fitted using a logistic model for IC50 determination.
A cell-based modified ELISA assay for measuring sAPPβ, the secreted ectodomain of β-amyloid precursor protein (APP) following […] (BACE1) cleavage, was used to identify a class of compounds that interfered with the first step of sAPPβ generation. This assay has been described in International Application PCT/US2007/015938 (Published as International Publication No. WO 08/008,463), which is herein incorporated in its entirety for all purposes.
The SY5Y-BACEGFP-SEAPAPPwt cell based assay was developed to discover novel small molecule modulators of BACE1 activity. SY5Y cells were stably transfected with GFP-tagged BACE1 (BACE-GFP) and secreted alkaline phosphatase (SEAP)-tagged wildtype APP (SEAP-APPwt). BACE1 cleavage of SEAP-APPwt results in secretion into the media of SEAP-tagged sAPPβ, which is collected and specifically captured using an sAPPβ cleavage site-specific antibody (sβwt). After washing, the fluorescent alkaline phosphatase substrate 4-methylumbelliferyl phosphate (4-MUP) is used to detect the captured SEAP-sAPPβ (FIG. 8).
176 compounds were tested in the primary screen (FIG. 9). Briefly, each compound (10 mM stock in DMSO) was diluted 1:25 in DMSO and loaded onto 96-well plates to generate a 400 μM stock plate. 1 μl of each compound was then diluted 1:200 with cell culture media (0.5% DMSO concentration) in two separate 96-well plates for a final screening concentration of 2 μM. 150 μl of media containing compound was then transferred onto SY5Y-BACEGFP-SEAPAPPwt cells in 96-well format, and the BACE1 assay was performed as described previously. The primary screen was conducted in duplicate. A parallel screen was conducted at 10 μM concentration, also in duplicate. […] Percent inhibition of the fluorescence signal was calculated as 100×[DMSO control−compound]/DMSO control The majority of data points were clustered between −25% and 25% inhibition of sAPPβ fluorescence signal (FIG. 9A). The Z′ factors for all 4 96-well plates used in the primary screen were above 0.7 (data not shown). The threshold for hit selection was set at 3 standard deviations, or 59.76% inhibition, yielding 6 small molecule hits and a hit rate of 3.41% (FIG. 9B).
28 full and partial hits were characterized in 8-point dose-response experiments for IC50 determination in SY5Y-BACEGFP-SEAPAPPwt cells (FIG. 10).

Aβ40 = Aβ40 / sAPPβ levels in Lenti-APPsw infected primary cortical neurons; format: cell-based, mouse
Experimental: FIG. 11A-B depicts Lentiviral-mediated transduction of APPsw in primary neurons. Primary cortical neurons were harvested from wild-type P0 mice and cultured according to established protocols. Lentivirus harboring human Swedish mutant APP (Lenti-APPsw) was packaged using ViraPower Lentiviral Packaging mix (Invitrogen) according to the manufacturer's protocol. DIV-14 neurons were incubated for 24 hours with primary culture media containing the indicated volume (in μl) of virus (LV-1 and LV-2 denote 2 separate batches of virus, 0 denotes no virus was used). After infection, neurons were incubated for 72 hours with primary culture media. Media was collected for Aβ40 ELISA (Bio Source), and cell lysates were probed with APPCT antibody to visualize transduced full-length APP. (A) Bar graph depicting results; (B) Assay results.
FIG. 13A-B depicts the effect of CU-264 on Aβ expressing primary cortical neuron cultures from wild-type mice transformed with lentivirus harboring APPsw. […] At 10 μm, CU-264 increased Aβ levels. (A) Bar graph depicting results; (B) Assay results.
The previously described hit was further analyzed in physiologically relevant systems, e.g. primary neurons and Alzheimer's model mice. Two complementary neuronal cell systems were employed to test the effects of candidate compounds on various aspects of APP processing: cultured mouse cortical neurons (postnatal day 0) infected with recombinant lentivirus carrying human APPsw (Lenti-APPsw; FIG. 11); and cultured cortical neurons prepared from Tg2576 mice (carrying human APPsw transgene under the control of the PrP promoter). Lenti-APPsw infected cortical neurons can be prepared in a relatively large scale, but suffer from variability in lentiviral infection efficiency, resulting in variable levels of APP expression. In contrast, cortical neurons derived from Tg2576 provide constant APP expression. However, neuronal yield is generally much lower, since only half the pups will contain the transgene when heterozygote crossbreeds were conducted. Therefore, Initial characterization experiments were performed using cortical neurons infected with Lenti-APPsw.
Lenti-APPsw infected primary cortical neurons were used for the initial round of physiological experiments. Primary cortical neurons were harvested from wild-type P0 pups using established protocols.
The Lenti-APPsw vector was co-transfected into HEK293 T cells with ViraPower packaging mix (Invitrogen) to generate the lentivirus. Lentiviral-mediated transduction of APPsw in primary neurons was performed by adding neuron primary culture media containing the lentiviral particles to wild-type DIV-14 primary neurons (FIG. 11). After 24 hours, neurons were incubated with media for 72 hours prior to collecting for Aβ40 measurement. Two batches of virus (LV-1 and LV-2) were tested, showing that there is batch-to-batch variation in the viral titer.
Using this experimental paradigm, CU-264 was tested at 10 and 2 μM concentrations to examine the sAPPβ- and Aβ-lowering activity of the compound. The protocol was modified slightly to allow for 24-hour compound treatment. DIV-14 wild-type primary neurons (FIG. 12) cultured on 6-well plates were incubated for 24 hours with primary culture media containing lentiviral particles. After infection, fresh media was mixed in a 1:1 ratio with conditioned media collected prior to lentiviral infection, and applied to the cells for 48 hours to allow for APP expression. […]

O=S1(=O)Nc2c(ccc3cccnc23)-c2cc(C(F)(F)F)ccc21 [CU-262]
potency for sAPPβ reduction (in words) (BACE1): sub-micromolar | IC50 (BACE1): 0.82 µM

O=[N+]([O-])c1cc(C(F)(F)F)ccc1S(=O)(=O)Nc1cccc2cccnc12 [CU-265]
IC50 (BACE1): 2.95 µM

O=S(=O)(Nc1cc(Br)cc2cccnc12)c1cccc2ccccc12 [CU-138]
IC50 (BACE1): 9.51 µM

Nc1ccccc1S(=O)(=O)Nc1cccc2cccnc12 [CU-242]
IC50 (BACE1): 3.82 µM

COc1cc(NS(=O)(=O)c2ccc3ccccc3c2)c2ncccc2c1 [CU-294]
IC50 (BACE1): 3.75 µM

Cc1ccc(S(=O)(=O)Nc2cccc3ccc(C)nc23)cc1 [CU-225]
IC50 (BACE1): 3.79 µM

O=S(=O)(Nc1cccc2cccnc12)c1cccs1 [CU-150]
IC50 (BACE1): 8.03 µM

O=S(=O)(Nc1cccc2cccnc12)c1cccc2ccccc12 [CU-131]
IC50 (BACE1): 6.46 µM

COc1ccc(S(=O)(=O)Nc2cccc3cccnc23)c([N+](=O)[O-])c1 [CU-261]
IC50 (BACE1): 1.92 µM

O=[N+]([O-])c1ccccc1S(=O)(=O)Nc1cccc2cccnc12 [CU-153]
IC50 (BACE1): 1.58 µM

COc1ccc(S(=O)(=O)Nc2cccc3cccnc23)c(N)c1 [CU-271]
IC50 (BACE1): 2.74 µM

Cc1ccc2cccc(NS(=O)(=O)c3ccc(C(F)(F)F)cc3[N+](=O)[O-])c2n1 [CU-280]
IC50 (BACE1): 5.51 µM

Cc1ccc2cccc(NS(=O)(=O)c3ccccc3[N+](=O)[O-])c2n1 [CU-273]
IC50 (BACE1): 12.4 µM

O=[N+]([O-])c1ccc(S(=O)(=O)Nc2cccc3cccnc23)cc1 [CU-152]
IC50 (BACE1): 4.63 µM

Cc1ccc(S(=O)(=O)Nc2cc(Br)cc3cccnc23)cc1 [CU-167]
IC50 (BACE1): 1.09 µM

Nc1cc(C(F)(F)F)ccc1S(=O)(=O)Nc1cccc2cccnc12 [CU-264]
Aβ40 levels in more physiological assay (Aβ40): raising | sAPPβ levels in more physiological assay (Aβ40): raising | Aβ40 levels in primary neurons (Aβ40; 2 μM CU-264, 24-hour treatment): does not reduce | Aβ levels in primary neurons (Aβ40; 10 μM, 24-hour treatment): increased | Aβ40 in primary neurons (Aβ40; tested at 10 and 2 μM, 24-hour treatment): did not reduce | potency for sAPPβ reduction (in words) (BACE1): most potent analog; also recorded: sub-micromolar; also recorded: most potent compound | IC50 (BACE1): 0.53 µM

Cc1ccc2cccc(NS(=O)(=O)c3ccccc3N)c2n1 [CU-274]
IC50 (BACE1): 11.1 µM

O=S(=O)(Nc1cccc2cccnc12)c1ccc2ccccc2c1 [CU-155]
IC50 (BACE1): 2.2 µM

COc1ccc(S(=O)(=O)Nc2cccc3cccnc23)cc1 [CU-151]
IC50 (BACE1): 5.92 µM

Cc1ccc2cccc(NS(=O)(=O)c3ccc(C(F)(F)F)cc3N)c2n1 [CU-281]
IC50 (BACE1): 3.28 µM

O=S(=O)(Nc1cc(Br)cc2cccnc12)c1cccc2cccnc12 [CU-168]
IC50 (BACE1): 17.2 µM

COc1cc(NS(=O)(=O)c2ccccc2[N+](=O)[O-])c2ncccc2c1 [CU-268]
IC50 (BACE1): 8.11 µM

Cc1ccc2ccc3c(c2n1)NS(=O)(=O)c1ccc(C(F)(F)F)cc1-3 [CU-282]
IC50 (BACE1): 1.11 µM

O=S(=O)(Nc1cccc2cccnc12)c1cccc2cccnc12 [CU-156]
IC50 (BACE1): 4.23 µM

O=S(=O)(Nc1cc(Br)cc2cccnc12)c1ccccc1 [CU-166]
IC50 (BACE1): 13.4 µM

COc1cc(NS(=O)(=O)c2cccc3ccccc23)c2ncccc2c1 [CU-295]
IC50 (BACE1): 3.63 µM

COc1ccc(S(=O)(=O)Nc2cccc3ccc(C)nc23)c(N)c1 [CU-278]
IC50 (BACE1): 11.5 µM
